# Source: US9708336B2, “Metallo-beta-lactamase inhibitors” (priority 2014, dated 2017)
# Read-outs that look alike come from different tables or passages of the source.
# Tests used:
# [1] = target: NDM-1 (Klebsiella pneumoniae, UniProt C7C422); test: biochemical; assay type: biochemical; settings: read-out: NDM-1 IC50
# [2] = target: IMP-1 (Serratia marcescens, UniProt P52699); test: biochemical; assay type: biochemical; settings: read-out: IMP-1 IC50
# [3] = target: VIM-1 (Pseudomonas aeruginosa (strain ATCC 15692 / DSM 22644 / CIP 104116 / JCM 14847 / LMG 12228 / 1C / PRS 101 / PAO1), UniProt A0A0F7KYQ8); test: Enzyme activity: determination of IC50, fluorescence assay with CCF2-FA substrate (VIM-1); assay type: biochemical
# [4] = test system: Escherichia coli expressing NDM-1 (CLB30005); test: Antibiotic potentiation activity: synergistic concentration (MITC95) with imipenem, OD600 growth; assay type: cell-based; settings: for Escherichia coli MITC95: Escherichia coli expressing NDM-1 (CLB30005), 95% growth inhibition; for Escherichia coli expressing NDM-1 (CLB 30005) MITC95: concentration giving 95% inhibition of bacterial growth
# Summary of the method: (§1)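 Each strain, suspended in saline from overnight colonies and diluted 1:100 into 1.1× CAMHB, is dosed with imipenem at 4 μg/ml (or 1 μg/ml) plus compound, incubated 22–24 h at 35 °C and read by absorbance.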
# [5] = test system: Klebsiella pneumoniae expressing VIM-1 (IHMA599644); test: as above; assay type: cell-based; settings: for Klebsiella pneumoniae MITC95: Klebsiella pneumoniae expressing VIM-1 (IHMA599644), 95% growth inhibition; for Klebsiella pneumoniae expressing VIM-1 (IHMA 599644) MITC95: concentration giving 95% inhibition of bacterial growth
# Summary of the method: as §1
# [6] = test system: Serratia marcescens expressing IMP-1 (CL5741); test: as above; assay type: cell-based; settings: for Serratia marcescens MITC95: Serratia marcescens expressing IMP-1 (CL5741), 95% growth inhibition; for Serratia marcescens expressing IMP-1 (CL5741) MITC95: concentration giving 95% inhibition of bacterial growth
# Summary of the method: as §1
# [7] = NDM-1 enzyme, CCF2-FA fluorescence assay
# [8] = IMP-1 enzyme, CCF2-FA fluorescence assay
# [9] = fluorescence assay with CCF2-FA substrate
# [10] = fluorescence assay with CCF2-FA substrate, read-out: VIM-1 IC50
# Sequence of IMP-1 (P52699 whole entry, looked up): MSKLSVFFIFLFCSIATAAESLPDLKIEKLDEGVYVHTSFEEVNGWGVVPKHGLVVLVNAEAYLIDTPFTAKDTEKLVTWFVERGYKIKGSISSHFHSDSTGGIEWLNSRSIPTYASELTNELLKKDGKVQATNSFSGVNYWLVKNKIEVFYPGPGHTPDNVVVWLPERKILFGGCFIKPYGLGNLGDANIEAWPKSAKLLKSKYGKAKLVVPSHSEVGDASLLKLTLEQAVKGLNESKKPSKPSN
# Sequence of NDM-1 (C7C422 whole entry, looked up, species assumed): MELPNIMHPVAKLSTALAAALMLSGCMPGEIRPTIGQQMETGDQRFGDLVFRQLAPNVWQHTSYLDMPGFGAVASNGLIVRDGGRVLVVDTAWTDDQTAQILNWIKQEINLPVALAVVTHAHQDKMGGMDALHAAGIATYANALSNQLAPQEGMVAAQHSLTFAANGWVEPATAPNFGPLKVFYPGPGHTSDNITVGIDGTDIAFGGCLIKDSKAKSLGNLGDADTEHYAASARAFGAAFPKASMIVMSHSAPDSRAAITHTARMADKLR
Structure (SMILES),"IC50 [1, 7] [nM]","IC50 [2, 8] [nM]","IC50 ([3]; VIM-1 enzyme, CCF2-FA fluorescence assay, read-out: VIM-1 IC50) [nM]",Escherichia coli MITC95 [4] [µM],Klebsiella pneumoniae MITC95 [5] [µM],Serratia marcescens MITC95 [6] [µM],"IC50 [1, 9] [nM]","IC50 [2, 9] [nM]","IC50 [3, 10] [nM]",Escherichia coli expressing NDM-1 (CLB 30005) MITC95 [4] [µM],Klebsiella pneumoniae expressing VIM-1 (IHMA 599644) MITC95 [5] [µM],Serratia marcescens expressing IMP-1 (CL5741) MITC95 [6] [µM],"IC50 ([3]; VIM-1 IC50, VIM-1 enzyme, CCF2-FA fluorescence assay) [nM]"
"CCCc1ccc(-c2ccc(C3CCNCC3)cc2)c(-c2nnn[nH]2)c1S(N)(=O)=O [Example 260, 4′-(Piperidin-4-yl)-4-propyl-2-(1H-tetrazol-5-yl)-[1,1′-biphenyl]-3-sulfonamide]",11.2,6.72,0.797,6.25,6.25,1.563,,,,,,,
"NS(=O)(=O)c1cccc(-c2ccc(C(=O)N3CCC(O)CC3)cc2)c1-c1nn[nH]n1 [Example 52, 4′-[(4-hydroxypiperidin-1-yl)carbonyl]-2-(2H-tetrazol-5-yl)biphenyl-3-sulfonamide]",,,,,,,1.71,17.9,96.6,1.563,100,6.25,
"NS(=O)(=O)c1ccnc(-c2ccc(CO)cc2)c1-c1nnn[nH]1 [Example 188, 2-(4-(Hydroxymethyl)phenyl)-3-(1H-tetrazol-5-yl)pyridine-4-sulfonamide]",,,,,,,36.5,768,4130,2.344,>200,37.5,
"NS(=O)(=O)c1cccc(-c2c[nH]c3nccnc23)c1-c1nn[nH]n1 [Example 104, 3-(5H-pyrrolo[2,3-b]pyrazin-7-yl)-2-(2H-tetrazol-5-yl)benzenesulfonamide]",,,,,,,16.8,287,107,0.9766,25,15.63,
"NS(=O)(=O)c1cccc(C#CCN2CCS(=O)(=O)CC2)c1-c1nn[nH]n1 [Example 148, 3-[3-(1,1-dioxidothiomorpholin-4-yl)prop-1-yn-1-yl]-2-(2H-tetrazol-5-yl)benzenesulfonamide]",,,,,,,131,550,3080,6.25,>200,50,
"NS(=O)(=O)c1cccc(-c2ccc(-c3nnn[nH]3)cc2)c1-c1nn[nH]n1 [Example 72, 4′-(1H-tetrazol-5-yl)-2-(2H-tetrazol-5-yl)biphenyl-3-sulfonamide]",,,,,,,0.637,48.7,22.2,2.344,25,12.5,
"COc1nc2cc(Cl)c(-c3cccc(S(N)(=O)=O)c3-c3nn[nH]n3)cc2[nH]1 [Example 279, 3-(5-chloro-2-methoxy-1H-benzo[d]imidazol-6-yl)-2-(2H-tetrazol-5-yl)benzenesulfonamide]",32.3,2170,,0.5859,75,25,,,,,,,183
"NS(=O)(=O)c1cccc(-c2ccc(-n3nccn3)cc2)c1-c1nn[nH]n1 [Example 5, 2-(2H-tetrazol-5-yl)-4′-(2H-1,2,3-triazol-2-yl)biphenyl-3-sulfonamide]",,,,,,,3.44,72.3,56.5,0.7813,>200,12.5,
"NS(=O)(=O)c1cccc(-c2cccc(-n3nccn3)c2)c1-c1nn[nH]n1 [Example 70, 2-(2H-tetrazol-5-yl)-3′-(2H-1,2,3-triazol-2-yl)biphenyl-3-sulfonamide]",,,,,,,2,105,28.9,1.563,150,18.75,
"NS(=O)(=O)c1cccc(-c2ccc(CC3OC(=O)NC3=O)cc2)c1-c1nn[nH]n1 (stereo not drawn) [Example 76, 4′-[(2,4-dioxo-1,3-oxazolidin-5-yl)methyl]-2-(2H-tetrazol-5-yl)biphenyl-3-sulfonamide]",,,,,,,17.1,42.7,244,6.25,>200,6.25,
